Measured values: US20210009551A1, “COMPOUNDS AND METHODS FOR TREATING FIBROSIS OR CANCER” (THE REGENTS OF THE UNIVERSITY OF CALIFORNIA, priority 2016, published 2021)

What was measured:
EGFR = assay: EGF signaling through EGFR (immunoblot); assay type: cell-based; conditions: 1 μM, 6 h pre-treatment, A549 and MDA-MB-231 cells
Protocol: (§1) Immunoblot. Pulverized tissue and cells were lysed in RIP A buffer (150 mM NaCl, 50 mM Tris, pH 8.0, 1% Triton X-100, 0.5% sodium deoxycholate, 0.1% SDS, supplemented with protease and phosphatase inhibitors) and analyzed by immunoblotting. Densitometry was quantified using NIH Imaged software.

Solubility (statement) = assay type: physicochemical
[1] = biological target: T1, wild-type or mutant human LOXL2 (Homo sapiens, UniProt Q9Y4K0); assay: LOX activity of conditioned media from NMuMG cells expressing wild-type or mutant LOXL2; assay type: cell-based; conditions: 1 μM, 6 h, K614N, K759R, all except the K731 mutant
T1 construct: Flag (C); expressed in transfected cells; host or cells: NMuMG cells, conditioned medium
T1 sequence (Q9Y4K0 26-774): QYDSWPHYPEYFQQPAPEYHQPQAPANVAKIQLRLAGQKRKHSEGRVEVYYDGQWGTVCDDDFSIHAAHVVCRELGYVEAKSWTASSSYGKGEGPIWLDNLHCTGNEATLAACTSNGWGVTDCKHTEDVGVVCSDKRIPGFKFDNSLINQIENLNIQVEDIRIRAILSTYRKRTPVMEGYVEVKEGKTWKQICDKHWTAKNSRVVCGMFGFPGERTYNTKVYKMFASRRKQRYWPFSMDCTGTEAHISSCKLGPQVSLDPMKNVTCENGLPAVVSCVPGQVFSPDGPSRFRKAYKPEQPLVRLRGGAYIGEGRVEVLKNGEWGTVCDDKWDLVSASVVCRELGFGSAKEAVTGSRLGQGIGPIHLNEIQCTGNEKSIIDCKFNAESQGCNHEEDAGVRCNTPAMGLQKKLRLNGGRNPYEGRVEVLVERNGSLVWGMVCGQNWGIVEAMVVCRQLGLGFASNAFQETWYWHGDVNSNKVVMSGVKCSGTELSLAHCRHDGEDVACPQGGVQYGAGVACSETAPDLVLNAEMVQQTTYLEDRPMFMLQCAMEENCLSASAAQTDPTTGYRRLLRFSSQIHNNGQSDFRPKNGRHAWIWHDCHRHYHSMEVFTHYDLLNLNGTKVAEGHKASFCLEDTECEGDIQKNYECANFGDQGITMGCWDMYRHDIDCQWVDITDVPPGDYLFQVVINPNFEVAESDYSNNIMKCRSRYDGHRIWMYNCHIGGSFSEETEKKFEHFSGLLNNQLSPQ
Protocol: (§2) LOX activity assay LOX activity of recombinant human LOXL2 or conditioned medium collected from cells expressing LOXL2 was measured using a Fluorimetric Lysyl Oxidase Activity Assay Kit (Abeam, Cambridge, Mass.) following a protocol provided by the manufacturer. Briefly, 50 μl of sample was mixed with an equal volume of assay reaction mixture containing LOX substrate, horseradish peroxidase (HRP) and HRP substrate in the presence and absence of testing inhibitors and D-penicillamine (DPA), a LOX inhibitor. The mixture was incubated for 30 min at 37° C. in darkness. The fluorescence increase was then measured with a fluorescence plate reader (BMG Lab Tech FLUOstar) at Ex/Em=540/590 nm. Sample buffer or medium alone without LOXL2 was used for determination of the background fluorescence.
Site-directed mutagenesis of LOXL2. Site-directed mutagenesis was performed to generate K614N, K731R, and K759R point mutations using Phusion Site-Directed Mutagenesis Kit (Thermo Scientific, Waltham, Mass.) according to manufacturer's instructions. A pcDNA3-hLOXL2-flag plasmid containing the cDNA fragment of wild-type human LOXL2 fused with a flag tag at the C-terminus, was used as the template DNA^18. Mutations were confirmed by DNA sequencing. […]

human LOXL2 [2] = biological target: T2, human LOXL2 (Homo sapiens, UniProt Q9Y4K0); assay: LOX activity assay (H2O2 release, fluorimetric); assay type: biochemical; conditions: 1 h incubation, read-out: IC50 of LOXL2 enzymatic activity toward a model substrate
T2 sequence (Q9Y4K0 26-774): T1 sequence (Q9Y4K0 26-774)
Protocol: as §2

human LOXL2 [3] = biological target: T2, human LOXL2; assay: LOXL2-induced stabilization of snail 1 protein in NMuMG cells; assay type: cell-based; set-up: Flag (C); expressed in transfected cells; host or cells: NMuMG cells; conditions: 0.5 μM, 24 h
Protocol: as §1

solubility (Solubility (statement)): more soluble | inhibition of LOX activity of wt and point mutant LOXL2 [1]: completely inhibited | IC50 (human LOXL2 [2]): 50 nM | LOXL2-induced stabilization of snail 1 protein (human LOXL2 [3]): blocked
SMILES: O=C(O[C@@H]1O[C@@H]2COC(=O)c3cc(O)c(O)c(O)c3-c3c(cc(O)c(O)c3O)C(=O)O[C@H]([C@H]1O)[C@@H]2O)c1cc(O)c(O)c(O)c1 [corilagin, Corilagin]
EGF signaling through EGFR (EGFR): no effect
